According to US20180303798A1 (Ares Trading S.A., priority 2012, published 2018):

How the values were obtained:
[1] = tested on: HEC-1-A cell line; experiment: Apoptosis assay (Propidium Iodide staining and FACS, sub-G1 events); format: cell-based, human; details: 24 hours
Protocol: (§1) HEC-1A cells were obtained by ATCC and culture following instructions of the provider.
(§2) HEC-1-A is an epithelial stabilized cell line isolated by H. Kuramoto from adenocarcinoma patient (21), which provide a valuable model to study endometrial epithelial cell in vitro (22).
The apoptosis (% cell death) of the endometrial cells is a physiological phenomenon generally observed at 10-20% rate during cell culture.
Apoptosis levels were assayed by Propidium Iodide staining and FACS analysis. Percentage of sub-G1 events is shown for one of two experiments performed.

[2] = tested on: HEC-1-A cell line; experiment: Antioxidant activity assay (ROS by FACS); format: cell-based, human
Protocol: They were used in different concentrations (i.e. 40 nM, 80 nM, 170 nM and 340 nM, corresponding respectively to 9.4×10^−9 g/ml, 18×10^−9 g/ml, 40×10^−9 g/ml and 80×10^−9 g/ml).
as §1, §2
Reactive Oxidative Substances (ROS) were measured by FACS as previously described by Italiano et al. (23) in two independent replicates.

[3] = tested on: endometrial tissue; experiment: In vitro culture of endometrium with melatonin, visualization of pinopodes by electron microscopy (SEM); format: cell-based, human; details: co-culture from 3 to 5 days of endometrial tissue with permanent addition of melatonin
Protocol: The melatonin and the culture medium used are the same as those used for the in vivo study.
It has been used a field emission at high resolution electron microscope, FE HITACHI S 4000 model, operating at […].
Soon after retrieval from the patient, small pieces of endometrial tissue of about 1 mm in size have been placed in a fixing solution composed of paraformaldehyde 1% and glutaraldehyde 0.5% in buffer cacodylate 0.1 M pH 7.2 for 3 hours.
After this fixing the pieces are washed in PBS 20 min×3 times (1 hour total) and then the post fixing is carried out in a solution of osmium tetroxide 2% and potassium ferrocyanide 2.5%.
The preparation is kept in the dark for 3 hours to be then accurately washed rotating in PBS, with 4 replacements of 20 min each.
It follows dehydration of the samples of tissue with acetone in ascending succession with 3 replacements in 1 hour for each gradation 50%-70%-80%-90%-95% and 2 replacements with pure acetone. […]
The samples are fixed through a special electrically conductive double sided adhesive and for their arrangement two very thin needles are used and the preparation is ready to be observed with scanning electron microscope (SEM). […]

[4] = tested on: patients subjected to assisted fertilization; experiment: Clinical study 1: multi-centre study, endometrial irrigation with melatonin in culture medium at oocyte retrieval; format: in vivo, human
Excerpt: (§3) Said culture medium is normally used to improve cleavage, differentiation and expansion in vitro of blastocyst. The medium contains D-glucose, all the 20 essential L-amino acids, L-taurine, Gentamicin, human serum albumin, calcium lactate, calcium pantothenate; sodium chloride, sodium bicarbonate and sodium pyruvate; potassium chloride, potassium phosphate; magnesium chloride, magnesium sulfate; purified water. Further characteristics of the culture medium: • pH: 7.5-7.8 (use of bicarbonate buffer) • Osmolarity: 280-290 mOsm/kg • Endotoxins: <0.4 EU/ml • MEA: ≥80% • 2) physiological solution (Clinical Trial 2)
In the logistic regression, OR corresponds to the antilogarithm on a natural basis of the regression coefficient β associated with each covariate in the regression model.
The value thus calculated expresses therefore the advantage obtained through each procedure, irrespective of the other conditions.
The two-tailed confidence intervals at 95% (IF95%) of the OR have been calculated through the formula of […]
For the latter, the CI (confidence interval or trust interval) has been calculated through statistical analysis (IMPRUN. TXT) of linear regression with more variables of 95%.

[5] = tested on: patients subjected to assisted reproduction; experiment: Clinical study 2: single centre study, endometrial washing with melatonin in sterile physiological solution; format: in vivo, human
Excerpt: as §3
Restricted criteria of inclusion have been used for selecting the patient population involved in the studies: • 3) age ≥20 and <44 years • 4) body mass index (BMI) ≥20 and ≤28 kg/m^2 • 5) Basal FSH≤19 UI/l • 6) Male and female factors
The second clinical study with a single prospective centre involved 64 patients in the group of control and 92 patients in the group of study.
In the case of the physiological solution, the catheter can be pre-filled with physiological solution supplemented with melatonin.
The catheter has been introduced in the internal uterine orifice with the same steps through which the operator carries out the conventional embryo-transfer (ET).
The single centre study involved 64 patients in the group of control and 92 patients in the group of study.
The primary endpoint of the study is the rate of clinical pregnancies (fetal heart) due to embryonic transfer (ET); the secondary endpoint is the rate of ongoing pregnancies and aborts.

[6] = tested on: Ishikawa cells; details: effect produced through MT2 receptors; reference (7); cited from earlier work
[7] = 170 nM (40 ng/ml) compound, H2O2 200 mcg/ml
[8] = number of patients out of 92 ET

Row | SMILES | effect on apoptosis (% cell death, sub-G1) ([1]; up to concentration of 170 nM) | protection of cell line from oxidation (ROS, FACS) [2, 7] | anti-oxidative effect (ROS, FACS) ([2]; dose increased up to 340 nM, H2O2 200 mcg/ml, data not shown) | effect on apoptosis (% cell death, sub-G1) ([1]; at 170 and 340 nM) | effect on apoptosis (% cell death, sub-G1) ([1]; all the concentrations tested (80, 170, 340 nM)) | pinopodes (SEM) with respect to the culture of control [3] | number of pregnancies with respect to the other two groups ([4]; irrigation or washing with melatonin vs physiological solution and no irrigation) | result of endometrial irrigation at lower concentration ([4]; preceding studies with one third and the half of the final concentration 10×10^−9 g/ml, not shown data) | rate of clinical pregnancies and ongoing pregnancies vs the group of control ([5]; endometrial washing with solutions containing melatonin, infertile female population) | Aborts ([5]; group of study) [%] | BHCG Positive (on total of ET) ([5]; group of study, 92 ET) [%] | rate of ongoing pregnancies (Ongoing Pregnancy/ET) ([5]; group of study, 92 ET) [%] | rate of clinical pregnancies (Clinical Pregnancy/ET) ([5]; group of study, 92 ET, melatonin 10×10^−9 g/ml in physiological solution) [%] | BHCG Positive (on total of ET), No [5, 8] | Clinical Pregnancy/ET, No [5, 8] | Ongoing Pregnancy/ET, No [5, 8] | Aborts, No ([5]; number of patients, group of study) | anti-oxidative effect (ROS, FACS) ([2]; 170 nM (40 ng/ml) compound, H2O2 20 mcg/ml) | proliferation of atypical endometrial cells (Ishikawa) [6]
1 | COc1cc2c(CCNC(C)=O)c[nH]c2cc1O [6-hydroxy-melatonin, 6-hydroxymelatonin] | no effect on apoptosis | does not | anti-oxidative effect of this analogue is reached | – | – | – | – | – | – | – | – | – | – | – | – | – | – | – | –
2 | COc1ccc2cccc(CCNC(C)=O)c2c1 [agomelatine] | – | continued to protect cell line from oxidation | – | protective effect | – | – | – | – | – | – | – | – | – | – | – | – | – | – | –
3 | COc1ccc2[nH]cc(CCNC(C)=O)c2c1 [melatonin, N-acetyl-5-methoxytryptamine] | – | continued to protect cell line from oxidation | – | – | protective effect on apoptosis | unquestionable increase of pinopodes | double the number of pregnancies | without giving the same results | double | 11.8 | 44.6 | 32.6 | 37 | 41 | 34 | 30 | 4 | same anti-oxidative effect | inhibits proliferation
